Data published in ChEMBL document CHEMBL5376012, “Consensus screening for a challenging target: the quest for P-glycoprotein inhibitors” (RSC Med Chem, 2024).
Calls of active or inactive are those of the source. No cut-off for these calls is given here.

Key:
Caco-2 [1] = experiment: Cytotoxicity against colchicine and vincristine stimulated human Caco-2 cells assessed as reduction in cell viability at 10 uM preincubated for 30 mins followed by colchicine and vincristine addition for 24 hrs by CCK-8 assay relative to control; format: functional; conditions: time 24.5 hrs
[2] = target: ATP-dependent translocase ABCB1 (Homo sapiens, UniProt P08183); experiment: Inhibition of human recombinant P-gp ATPase activity in isolated membranes incubated in presence of verapamil by firefly luciferase based luminescence analysis; format: cell membranes
Caco-2 [3] = experiment: Cytotoxicity against colchicine and vincristine stimulated human Caco-2 cells assessed as reduction in cell viability at 10 uM preincubated for 30 mins followed by colchicine and vincristine addition for 24 hrs by CCK-8 assay; format: functional, cell-based; conditions: time 24.5 hrs

ATP-dependent translocase ABCB1, sequence (P08183 whole entry): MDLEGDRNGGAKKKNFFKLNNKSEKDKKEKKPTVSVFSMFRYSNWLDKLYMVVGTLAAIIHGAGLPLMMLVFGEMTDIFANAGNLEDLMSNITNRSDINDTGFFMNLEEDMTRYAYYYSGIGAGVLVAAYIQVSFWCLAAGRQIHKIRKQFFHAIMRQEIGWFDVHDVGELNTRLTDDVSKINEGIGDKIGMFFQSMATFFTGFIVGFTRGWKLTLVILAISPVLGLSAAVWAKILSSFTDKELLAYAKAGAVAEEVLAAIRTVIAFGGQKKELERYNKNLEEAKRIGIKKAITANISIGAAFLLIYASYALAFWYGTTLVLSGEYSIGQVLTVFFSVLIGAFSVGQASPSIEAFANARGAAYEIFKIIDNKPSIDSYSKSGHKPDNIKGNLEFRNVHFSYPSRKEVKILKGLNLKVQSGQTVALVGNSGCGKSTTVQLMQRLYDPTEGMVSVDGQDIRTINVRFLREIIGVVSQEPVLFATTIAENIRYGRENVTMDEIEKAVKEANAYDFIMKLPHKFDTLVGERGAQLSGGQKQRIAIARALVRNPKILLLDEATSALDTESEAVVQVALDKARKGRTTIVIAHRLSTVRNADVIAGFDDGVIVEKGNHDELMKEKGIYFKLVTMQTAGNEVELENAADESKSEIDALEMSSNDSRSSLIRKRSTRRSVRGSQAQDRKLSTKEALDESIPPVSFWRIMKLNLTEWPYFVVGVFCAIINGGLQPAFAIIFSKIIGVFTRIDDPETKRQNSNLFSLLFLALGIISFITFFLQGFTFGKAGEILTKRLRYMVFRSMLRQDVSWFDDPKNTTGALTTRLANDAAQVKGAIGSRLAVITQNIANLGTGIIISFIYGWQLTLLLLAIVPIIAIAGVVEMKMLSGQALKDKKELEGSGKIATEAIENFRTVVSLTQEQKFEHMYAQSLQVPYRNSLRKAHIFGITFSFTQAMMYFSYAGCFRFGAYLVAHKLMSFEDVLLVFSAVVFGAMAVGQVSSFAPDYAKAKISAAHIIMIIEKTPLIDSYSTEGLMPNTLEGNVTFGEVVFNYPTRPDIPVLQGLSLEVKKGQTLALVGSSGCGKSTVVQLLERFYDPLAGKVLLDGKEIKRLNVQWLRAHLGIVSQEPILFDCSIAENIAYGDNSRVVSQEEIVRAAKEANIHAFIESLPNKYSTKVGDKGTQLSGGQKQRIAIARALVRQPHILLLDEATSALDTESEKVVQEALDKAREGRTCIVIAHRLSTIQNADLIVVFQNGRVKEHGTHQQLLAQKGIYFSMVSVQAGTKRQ

Structure (SMILES)	Activity (Caco-2 [1]) [%]	IC50 [2] [µM]	Activity (Caco-2 [3])
COc1cc([C@@H](CC(=O)NCCCN2CCOCC2)C2=C(O)[C@@]3(Oc4c(Cl)c(OC)cc(OC)c4C3=O)[C@H](C)CC2=O)ccc1O	30	3.31	
CC(=O)c1c(O)c(C)c(O)c2c1OC1=CC(=O)/C(=C(/C)Nc3cc(-c4nnn(CC(=O)O)n4)ccc3O)C(=O)[C@@]12C	30	3.17	
COc1cc([C@@H](CC(=O)NCCC(=O)Nc2ccccn2)C2=C(O)[C@@]3(Oc4c(Cl)c(OC)cc(OC)c4C3=O)[C@H](C)CC2=O)ccc1O	30	1.28	
COc1cc(CCNC(=O)C[C@@H](C2=C(O)[C@@]3(Oc4c(Cl)c(OC)cc(OC)c4C3=O)[C@H](C)CC2=O)c2ccc(SC)cc2)c([N+](=O)[O-])cc1OC	30	2.4	
COC(=O)[C@@H](Cc1cccc([N+](=O)[O-])c1O)NC(=O)CCC(=O)OCC(=O)[C@@]1(O)CC[C@@H]2[C@@H]3CCC4=CC(=O)CC[C@]4(C)[C@@H]3CC[C@@]21C		7.9	
CC(C)C[C@H](NC(=O)[C@H]1CCCN1C(=O)[C@@H](C)NC(=O)COc1cc(O)c2c(=O)c(-c3ccc4c(c3)OCCO4)coc2c1)C(=O)CC(N)=O		> 50	inactive
COC(=O)C[C@@H](c1ccc(-c2cc(C(=O)O)ccc2Cl)o1)c1oc(CN2CCN(c3ccc(OC)cc3)CC2)cc(=O)c1O	30	4.99	
COc1ccc(-c2coc3c4c(cc(O)c3c2=O)OC(=O)C[C@H]4c2ccc(OCc3nccn3C)c(OC)c2)cc1OC	30	4.8	
CC(C)(C)OC(=O)N[C@H](Cc1ccc(OC(=O)OC(C)(C)C)cc1)C(=O)NCCCC(=O)Oc1ccc2c(=O)c(Oc3ccccc3F)coc2c1		> 50	
COc1ccc2c(c1)[C@H](CCNC(=O)C[C@@H](C1=C(O)[C@@]3(Oc4c(Cl)c(OC)cc(OC)c4C3=O)[C@H](C)CC1=O)c1ccc(O)c(OC)c1)C(=O)N2		> 50	
O=C(O)[C@H]1O[C@@H](Oc2cc3oc(-c4ccc(O)cc4)cc(=O)c3c(O)c2O)[C@H](O)[C@@H](O)[C@@H]1O [SCUTELLARIN]		19.7	
CCOC(=O)c1cccc(NC(=O)O[C@@H]2CO[C@H]3[C@@H]2OC[C@@H]3NS(=O)(=O)c2cc(OC)ccc2OC)c1		> 50	inactive
